# Data: patent US8809002B2, “MUC1, caspase-8, and DED-containing proteins” (Dana-Farber Cancer Institute, Inc., priority 2008, dated 2014)
# Ends that are not written are not given here.
# Assays:
# MUC1-C = test: Silencing of MUC1 expression in BC-1 cells, immunoblot; assay type: cell-based, human; conditions: lentivirus, compared to control siRNA (FIG. 1A)
# Excerpt: FIG. 1A: BC-1 cells were infected with lentiviruses expressing the CsiRNA, MUC1siRNA#1 or MUC1siRNA#2. Lysates from the indicated cell populations were immunoblotted with anti-MUC1-C and anti-β-actin antibodies as indicated to the right of the photographs. The molecular weights of each of the proteins (in kilodaltons (kDa)) are indicated to the left of each of the photographs.
# The BLOCK-iT Target Screening System (Invitrogen, Carlsbad, Calif.) was used to generate two MUC1-specific siRNA molecules (Sequence #1: […] (SEQ ID NO:31); or Sequence #2: […] (SEQ ID NO:32)) and a control siRNA sequence ([…]; SEQ ID NO:33). The RNAi cassettes (nucleic acids encoding the siRNA molecules) were inserted into pLenti4/BLOCK-iT-DEST by LR recombination for the generation of lentiviral vectors. BC-1 cells were infected with the lentiviruses at a multiplicity of infection of 5 in the presence of 8 μg/ml polybrene. Cell clones were selected in methylcellulose semi-solid medium containing 200 μg/ml Zeocin and assayed for downregulation of MUC1 by immunoblotting. […]
# Cells were lysed by sonication in the presence of 10 mM Tris-HCl, pH 7.5, 150 mM NaCl, 5 mM EDTA, 0.5% NP-40, 100 μg/ml phenylmethylsulphonyl fluoride (PMSF), and standard protease inhibitors. […] Reactivity was detected with horseradish peroxidase-conjugated secondary antibodies and chemiluminescence (GE Healthcare Biosciences, Piscataway, N.J.).
# BC-1 cells = test: FasL-induced apoptosis of BC-1 cells (sub-G1 DNA content); assay type: cell-based, human; conditions: 50 ng/ml FasL, 24 hours (FIG. 1C, 1D)
# Experimental: FIG. 1C: The indicated BC-1 cell populations were treated with 50 ng/ml FasL for 24 hours and then analyzed by fluorescence assisted cell sorting (FACS) to determine the sub-G1 DNA content in the cells.
# FIG. 1D: The results obtained with the indicated BC-1 cell populations left untreated (open bars) or treated with FasL (solid bars) are expressed as the percentage apoptosis (mean+SD for three experiments).
# Cells were fixed in 70% ethanol and incubated in PBS containing 50 μg/ml RNase and 2.5 μg/ml propidium iodide. DNA content was analyzed by flow cytometry. The percentage of cells with sub-G1 DNA was determined by the MODFIT LT Program (Verity Software, Topsham, Me.). Cells were also suspended in Annexin-V-FLOUS containing propidium iodide (Roche) and analyzed by flow cytometry.
# caspase-8-p18 = biological target: T1, caspase-8-p18 (Homo sapiens, UniProt Q14790); test: In vitro binding assay: GST-MUC1-CD(1-20) with His-caspase-8-p18 in the presence of MUC1-CD(1-20) peptide; conditions: increasing amounts of peptide; GST pull-down, immunoblot (FIG. 9D, lower)
# T1 construct: His; made in house; host or cells: E. coli BL21 DE3 is stated for the GST proteins; no host is printed for the His proteins
# Experimental: (§1) FIG. 9D: GST or the indicated GST-MUC1-CD proteins were incubated with His-caspase-8-p18 (upper panel). The adsorbates were immunoblotted with anti-His and anti-GST antibodies. GST or GST-MUC1-CD(1-20) was incubated with His-caspase-8-p18 in the presence of increasing amounts of MUC1-CD(1-20) peptide (lower panel). The adsorbates were immunoblotted with anti-caspase-8 antibody as indicated to the right of the photographs. Input of the GST proteins was assessed by Coomassie blue staining.
# (§2) Purified GST, GST-MUC1-CD(1-72), GST-MUC1-CD deletion mutants, GST-caspase-8, GST-caspase-8 deletion mutants, GST-FADD, GST-N-FADD and GST-C-FADD protein (36) were purified from E. coli (BL21 DE3) and immobilized on glutathione-agarose beads (Pierce). His-MUC1-CD(1-72) and His-caspase-8 deletion mutant proteins were purified on Ni-NTA beads (Qiagen, Valencia, Calif.). GST and GST fusion proteins bound to glutathione beads were incubated with purified soluble proteins for 2 hours at 4° C., and washed. Adsorbates bound to the beads were analyzed by solubilizing the protein/bead mixture in Laemli buffer following by sodium dodecyl sulfate polyacrylamide gel electrophoresis (SDS-PAGE) and immunoblotting. For competition studies, GST-caspase-8 DED protein bound to FADD was incubated with increasing amounts of MUC1-CD protein. Precipitated proteins were subjected to SDS-PAGE and immunoblot analysis. […]
# caspase-8 = test: In vitro binding assay (GST pull-down) of MUC1-CD proteins with caspase-8; set-up: species or system human; conditions: immunoblot (FIG. 9A, 9D)
# Experimental: FIG. 9A depicts the amino acid sequence for human MUC1-CD (SEQ ID NO:2). Phosphorylation sites and regions for β-catenin, IKKβ and IKKγ binding are indicated by brackets of arrows (upper panel). GST (glutathione-S-transferase) or GST-caspase-8 protein were incubated with purified His-MUC1-CD. The adsorbates and the input protein were immunoblotted with anti-His and anti-GST antibodies as indicated to the right of the photographs. The molecular weights of each of the proteins (in kilodaltons (kDa)) are indicated to the left of each of the photographs.
# as §1, with “The adsorbates were immunoblotted with anti-caspase-8 antibody as indicated to the right of the photographs.” left out
# Purified GST, GST-MUC1-CD(1-72), GST-MUC1-CD deletion mutants, GST-caspase-8, GST-caspase-8 deletion mutants, GST-FADD, GST-N-FADD and GST-C-FADD protein (36) were purified from E. coli (BL21 DE3) and immobilized on glutathione-agarose beads (Pierce). […] Adsorbates bound to the beads were analyzed by solubilizing the protein/bead mixture in Laemli buffer following by sodium dodecyl sulfate polyacrylamide gel electrophoresis (SDS-PAGE) and immunoblotting. […]
# FADD [1] = biological target: T2, FADD (Homo sapiens, UniProt Q13158); test: In vitro binding assay (GST pull-down) of GST-MUC1-CD proteins with purified FADD; conditions: immunoblot (FIG. 12A)
# T2 sequence (Q13158 1-208): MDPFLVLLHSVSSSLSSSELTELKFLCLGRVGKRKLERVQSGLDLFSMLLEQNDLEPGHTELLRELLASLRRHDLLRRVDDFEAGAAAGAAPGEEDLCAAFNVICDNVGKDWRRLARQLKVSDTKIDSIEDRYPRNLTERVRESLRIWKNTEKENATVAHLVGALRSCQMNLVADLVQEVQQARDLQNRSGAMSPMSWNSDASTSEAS
# Experimental: FIG. 12A: GST and the indicated GST-MUC1-CD proteins were incubated with purified FADD. The adsorbates and input FADD were immunoblotted with anti-FADD antibody. The GST and GSTMUC1-CD proteins were stained with Coomassie blue.
# Purified GST, GST-MUC1-CD(1-72), GST-MUC1-CD deletion mutants, GST-caspase-8, GST-caspase-8 deletion mutants, GST-FADD, GST-N-FADD and GST-C-FADD protein (36) were purified from E. coli (BL21 DE3) and immobilized on glutathione-agarose beads (Pierce). His-MUC1-CD(1-72) and His-caspase-8 deletion mutant proteins were purified on Ni-NTA beads (Qiagen, Valencia, Calif.). GST and GST fusion proteins bound to glutathione beads were incubated with purified soluble proteins for 2 hours at 4° C., and washed. Adsorbates bound to the beads were analyzed by solubilizing the protein/bead mixture in Laemli buffer following by sodium dodecyl sulfate polyacrylamide gel electrophoresis (SDS-PAGE) and immunoblotting. For competition studies, GST-caspase-8 DED protein bound to FADD was incubated with increasing amounts of MUC1-CD protein. Precipitated proteins were subjected to SDS-PAGE and immunoblot analysis. In certain studies, binding was performed in the presence of a synthetic peptide ([…]) (SEQ ID NO:3) derived from amino acids 1-20 from MUC1-CD (Molecular Biology Core Facility, Dana-Farber Cancer Institute).
# FADD [2] = biological target: T2, FADD; test: In vitro competition: GST-caspase-8(1-183) binding to FADD with increasing amounts of MUC1-CD; conditions: increasing amounts of MUC1-CD protein (FIG. 12C)
# Experimental: FIG. 12C: GST or GST-caspase-8(1-183) containing the DEDs was incubated with FADD in the absence or presence of increasing amounts of purified MUC1-CD. The adsorbates and input FADD were immunoblotted with anti-FADD antibody. Input of GST and GST-caspase-8(1-183) was determined by Coomassie blue staining. Input of MUC1-CD was determined by immunoblotting.
# as §2
# MUC1-CD = biological target: T3, MUC1-CD (Homo sapiens, UniProt P15941); test: In vitro binding assay of His-caspase-8-p18 fragments with GST-MUC1-CD; conditions: GST-MUC1-CD on glutathione beads (FIG. 9C)
# T3 construct: Purified GST, GST-MUC1-CD(1-72), GST-MUC1-CD deletion mutants; made in house; host or cells: E. coli BL21 DE3
# T3 sequence (P15941 1184-1255): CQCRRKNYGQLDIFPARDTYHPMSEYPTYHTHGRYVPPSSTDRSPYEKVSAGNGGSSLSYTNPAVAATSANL
# Experimental: FIG. 9C is a schematic of his-tagged caspasc-8 p18 fragment depicting the A, B, C and AB subfragments (upper panel). The shaded region denotes position of the His tag. GST or GST-MUC1-CD was incubated with the indicated His-caspase-8 proteins. The adsorbates and input proteins ( 1/10th that used in the reactions) were immunoblotted with anti-His and anti-GST antibodies as indicated to the right of the photographs.
# as §2
# caspase-8, sequence (Q14790 184-384 limits assumed): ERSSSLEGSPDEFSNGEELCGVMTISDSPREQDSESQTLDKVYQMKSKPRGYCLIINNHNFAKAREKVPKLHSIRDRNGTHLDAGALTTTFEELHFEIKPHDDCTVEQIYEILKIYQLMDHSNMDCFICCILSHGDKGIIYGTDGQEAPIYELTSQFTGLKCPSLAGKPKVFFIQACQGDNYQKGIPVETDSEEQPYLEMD
# T1 sequence (Q14790 184-384): as the sequence (Q14790 184-384 limits assumed) above
substance,measurement,setting,value
AAGGTACCATCAATGTCCACG (expressed or natural sequence) [MUC1siRNA#1],MUC1-C expression,MUC1-C,stably downregulated
same,FasL-induced apoptosis,BC-1 cells,sensitized
AAGTTCAGTGCCCAGCTCTAC (expressed or natural sequence) [MUC1siRNA#2],MUC1-C expression,MUC1-C,similar
same,FasL-induced apoptosis,BC-1 cells,confirmed
"CQCRRKNYGQLDIFPARDTY (listed as Homo sapiens) [MUC1-CD(1-20) peptide, synthetic peptide derived from amino acids 1-20 from MUC1-CD]",binding of MUC1-CD(1-20) to caspase-8-p18 in the presence of the peptide,caspase-8-p18,inhibited
MUC1-CD(1-20): GST-MUC1-CD fragment containing just amino acids 1-20 of MUC1-CD (CQCRRKNYGQLDIFPARDTY; cysteine pairing not given here; also: GST fusion),binding to caspase-8,caspase-8,able to interact with caspase-8
"MUC1-CD(1-45): GST-MUC1-CD deletion mutant, amino acids 1-45 of MUC1-CD (CQCRRKNYGQLDIFPARDTYHPMSEYPTYHTHGRYVPPSSTDRSP; cysteine pairing not given here; also: GST fusion)",binding to FADD,FADD [1],not
"MUC1-CD: 72 amino acid cytoplasmic domain of full-length human MUC1, purified as His- or GST-tagged protein",binding to FADD,FADD [1],interact directly
same,interaction between FADD and caspase-8 (1-183),FADD [2],progressive decrease
same,binding to caspase-8,caspase-8,binds to caspase-8
"YEKVSAGNGGSSLSYTNPAVAATSANL (also: GST fusion; listed as Homo sapiens) [MUC1-CD(46-72), GST-MUC1-CD deletion mutant, amino acids 46-72 of MUC1-CD]",binding to FADD,FADD [1],found to bind to FADD
"caspase-8-p18-B: His-tagged fragment B of caspase-8-p18, amino acids 270-322 of human caspase-8 (KLHSIRDRNGTHLDAGALTTTFEELHFEIKPHHDCTVEQIYEILKIYQLMDHS; also: His tag; listed as Homo sapiens)",binding to MUC1-CD,MUC1-CD,binds
